Data set [1] addresses Protein fem-1 homolog B/Folliculin-interacting protein 1 (Homo sapiens, UniProt Q8TF40+Q9UK73). The data set is described as follows: Inhibition of FEMIB/FNIP1 interaction in human HEK293T cells. In kind it is cell-based.
Data set [2] has as its target Folliculin-interacting protein 1 (Homo sapiens, UniProt Q8TF40). The data set is described as follows: Inhibition of FNIP1 in human HEK293T cells. In kind it is cell-based.
Data set [3] has as its target T1, Bromodomain-containing protein 4 (Homo sapiens, UniProt O60885). The experiment in a line: Binding affinity to BRD4 BD2 (unknown origin) assessed as dissociation constant by isothermal titration calorimetry assay. On the technique in general: ITC needs no label: the signal is the heat of the interaction.
The target of data set [4] is Bromodomain-containing protein 2 (Homo sapiens, UniProt P25440). The data set is described as follows: Binding affinity to BRD2 BD1 (unknown origin) assessed as dissociation constant by isothermal titration calorimetry assay.
In data set [5] the target is von Hippel-Lindau disease tumor suppressor (Homo sapiens, UniProt P40337). The data set is described as follows: Binding affinity to VHL (unknown origin) assessed as dissociation constant by isothermal titration calorimetry assay.
The target of data set [6] is Bromodomain-containing protein 3 (Homo sapiens, UniProt Q15059). The experiment in a line: Induction of BRD3 degradation in human HeLa cells measured after 4 hrs. In kind it is cell-based.
In data set [7] the target is T1, Bromodomain-containing protein 4. The experiment in a line: Induction of BRD4 degradation in human HeLa cells measured after 4 hrs. The format is cell-based.
Data set [8] shares this target. The data set is described as follows: Induction of BRD4 degradation in human 22Rv1 cells assessed as downregulation of c-Myc expression at 250 nM measured after 2 hrs relative to control. In kind it is cell-based.
A further data set concerns CWR22R. The experiment in a line: Antiproliferative activity against human 22Rv1 cells assessed as reduction in cell viability incubated for 48 to 72 hrs by Celltiter-Glo cell viability assay. The format is functional, cell-based. A general note: In ATP-based viability assays light output follows the ATP content of the culture.
Data set [9] has as its system MV4-11. The experiment in a line: Antiproliferative activity against human MV4-11 cells assessed as reduction in cell viability incubated for 48 to 72 hrs by Celltiter-Glo cell viability assay. The format is functional, cell-based.
Data set [10] addresses T1, Bromodomain-containing protein 4. The data set is described as follows: Induction of BRD4 degradation in human SU-DHL-4 measured after 72 hrs. The format is cell-based.
The target is the same in data set [11]. The experiment in a line: Induction of BRD4 degradation in human SU-DHL-4 measured after 72 hrs relative to control. The format is cell-based.
Another data set relates to SUD4. The experiment in a line: Antiproliferative activity against human SU-DHL-4 cells assessed as reduction in cell viability measured after 48 hrs by MTT assay. In kind it is functional.
Data set [12] deals with MCF7. The experiment in a line: Antitumor activity against human MCF7 cells xenografted in mouse assessed as tumor growth inhibition. In kind it is functional.
In data set [13] the target is T1, Bromodomain-containing protein 4. The data set is described as follows: Induction of BRD4 degradation in human MCF7 cells incubated for 72 hrs by Western blot analysis. The format is cell-based. In general terms: Immunoblotting shows a protein as a band on a membrane.
Data set [14] has the same target. The data set is described as follows: Induction of BRD4 degradation in human MCF7 cells incubated for 72 hrs by Western blot analysis relative to control. In kind it is cell-based.
Data set [15] is described as follows: Cytotoxicity against human MCF10 cells assessed as measuring cell viability incubated for 48 hrs by CCK-8 assay. In kind it is toxicity, cell-based.
The subject of data set [16] is MCF7. The data set is described as follows: Cytotoxicity against human MCF7 cells assessed as measuring cell viability incubated for 48 hrs by CCK-8 assay. In kind it is toxicity, cell-based. The settings on record: MCF7, 48 h.
In data set [17] the target is T1, Bromodomain-containing protein 4. The experiment in a line: Induction of BRD4 degradation in human MDA-MB-468 cells at 0.5 uM measured at 48 hrs relative to control. In kind it is cell-based.
For a further data set, the system named is MDA-MB-468. The data set is described as follows: Antiproliferative activity against human MDA-MB-468 cells assessed as cell growth inhibition. In kind it is functional.
Another data set concerns MDA-MB-231. The experiment in a line: Antiproliferative activity against human MDA-MB-231 cells assessed as cell growth inhibition. In kind it is functional.
Data set [18] deals with T1, Bromodomain-containing protein 4. The experiment in a line: Induction of BRD4 degradation in human HCT-116 cells assessed as downregulation of c-Myc expression. In kind it is cell-based.
Data set [19] has the same target. The data set is described as follows: Induction of BRD4 degradation in human HEK293T cells. The format is cell-based.
The target is the same in data set [20]. The experiment in a line: Induction of BRD4 degradation in human 231MFP cells. The format is cell-based. Conditions: 231mfp.
For data set [21] the target is unchanged. The data set is described as follows: Induction of BRD4 degradation in human HEK293T cells at 10 uM measured at 6 hrs relative to control. The format is cell-based.
For data set [22] the target is unchanged. The experiment in a line: Induction of BRD4 degradation in human HAP1 cells. The format is cell-based.
Data set [23] shares this target. The data set is described as follows: Induction of BRD4 degradation in human MV4-11 cells measured after 12 hrs. The format is cell-based.
The target is the same in data set [24]. The data set is described as follows: Induction of BRD4 degradation in human MV4-11 cells measured after 24 hrs. In kind it is cell-based.
For data set [25] the target is unchanged. The data set is described as follows: Induction of BRD4 degradation in human HD-MB03 cells measured after 12 hrs. In kind it is cell-based.
The target is the same in data set [26]. The experiment in a line: Induction of BRD4 degradation in human HD-MB03 cells at 100 nM measured at 72 hrs relative to control. In kind it is cell-based.
Data set [27] relates to MV4-11. The data set is described as follows: Cytotoxicity against human MV4-11 cells. In kind it is functional, cell-based.
The test system of data set [28] is MV4-11. The experiment in a line: Cytotoxicity against human MV4-11 cells measured after 96 hrs. In kind it is functional, cell-based. The settings on record: MV4-11, 96 h.

Sequence of Bromodomain-containing protein 3 (Q15059 whole entry): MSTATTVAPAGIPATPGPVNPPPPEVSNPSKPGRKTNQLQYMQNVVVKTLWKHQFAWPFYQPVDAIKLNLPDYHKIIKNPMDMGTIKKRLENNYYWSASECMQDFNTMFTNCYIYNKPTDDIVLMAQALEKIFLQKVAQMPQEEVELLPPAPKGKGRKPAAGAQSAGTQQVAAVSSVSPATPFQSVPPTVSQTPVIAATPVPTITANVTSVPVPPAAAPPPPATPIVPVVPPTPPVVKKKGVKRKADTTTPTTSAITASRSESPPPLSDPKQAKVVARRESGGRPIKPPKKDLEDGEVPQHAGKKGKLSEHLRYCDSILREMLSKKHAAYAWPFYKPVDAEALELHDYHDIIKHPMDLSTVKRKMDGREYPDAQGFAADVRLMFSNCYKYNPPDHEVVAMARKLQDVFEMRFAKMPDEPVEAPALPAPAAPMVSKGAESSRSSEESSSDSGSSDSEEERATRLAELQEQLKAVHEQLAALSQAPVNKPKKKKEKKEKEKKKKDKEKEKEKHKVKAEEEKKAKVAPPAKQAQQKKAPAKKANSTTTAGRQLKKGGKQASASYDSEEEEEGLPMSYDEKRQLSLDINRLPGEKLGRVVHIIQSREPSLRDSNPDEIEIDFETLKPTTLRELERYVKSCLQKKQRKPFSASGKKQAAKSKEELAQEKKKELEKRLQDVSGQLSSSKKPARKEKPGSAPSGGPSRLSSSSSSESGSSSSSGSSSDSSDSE
Sequence of von Hippel-Lindau disease tumor suppressor (P40337 whole entry): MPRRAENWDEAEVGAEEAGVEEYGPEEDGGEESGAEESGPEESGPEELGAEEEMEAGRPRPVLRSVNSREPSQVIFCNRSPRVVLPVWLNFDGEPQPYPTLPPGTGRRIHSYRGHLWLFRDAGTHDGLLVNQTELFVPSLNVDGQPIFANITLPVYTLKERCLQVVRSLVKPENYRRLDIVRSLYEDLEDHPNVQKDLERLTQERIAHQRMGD
Sequence of Folliculin-interacting protein 1 (Q8TF40 whole entry): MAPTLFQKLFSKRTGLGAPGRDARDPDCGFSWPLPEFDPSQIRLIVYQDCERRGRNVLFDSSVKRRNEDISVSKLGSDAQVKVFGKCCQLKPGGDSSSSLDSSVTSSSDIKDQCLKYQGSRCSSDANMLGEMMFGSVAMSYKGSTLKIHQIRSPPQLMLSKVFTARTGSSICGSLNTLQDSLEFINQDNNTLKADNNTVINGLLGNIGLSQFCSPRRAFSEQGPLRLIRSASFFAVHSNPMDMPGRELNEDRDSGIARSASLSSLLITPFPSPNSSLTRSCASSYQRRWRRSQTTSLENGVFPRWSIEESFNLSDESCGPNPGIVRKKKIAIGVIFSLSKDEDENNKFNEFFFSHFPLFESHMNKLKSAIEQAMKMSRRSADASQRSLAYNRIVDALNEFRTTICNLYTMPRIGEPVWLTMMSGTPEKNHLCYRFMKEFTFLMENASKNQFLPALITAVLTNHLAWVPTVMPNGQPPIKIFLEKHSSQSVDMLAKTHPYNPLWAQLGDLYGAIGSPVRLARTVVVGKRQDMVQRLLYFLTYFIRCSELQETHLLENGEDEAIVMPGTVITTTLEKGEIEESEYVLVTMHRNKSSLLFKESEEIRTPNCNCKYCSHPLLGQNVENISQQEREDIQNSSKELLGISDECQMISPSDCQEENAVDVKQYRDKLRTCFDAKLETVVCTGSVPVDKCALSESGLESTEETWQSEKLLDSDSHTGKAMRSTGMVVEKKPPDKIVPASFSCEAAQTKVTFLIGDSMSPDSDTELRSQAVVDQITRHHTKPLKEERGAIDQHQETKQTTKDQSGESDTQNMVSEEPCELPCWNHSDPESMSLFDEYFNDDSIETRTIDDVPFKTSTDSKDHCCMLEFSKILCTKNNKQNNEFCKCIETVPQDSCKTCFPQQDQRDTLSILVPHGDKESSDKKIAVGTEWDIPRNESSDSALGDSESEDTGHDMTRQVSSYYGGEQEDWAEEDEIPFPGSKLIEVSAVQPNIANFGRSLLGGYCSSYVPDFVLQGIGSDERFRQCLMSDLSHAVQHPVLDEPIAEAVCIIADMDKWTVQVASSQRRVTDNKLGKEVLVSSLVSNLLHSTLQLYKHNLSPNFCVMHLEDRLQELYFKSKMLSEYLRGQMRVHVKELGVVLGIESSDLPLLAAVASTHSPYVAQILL
Sequence of Protein fem-1 homolog B/Folliculin-interacting protein 1 (Q8TF40 whole entry): as above
Sequence of Protein fem-1 homolog B/Folliculin-interacting protein 1 (Q9UK73 whole entry): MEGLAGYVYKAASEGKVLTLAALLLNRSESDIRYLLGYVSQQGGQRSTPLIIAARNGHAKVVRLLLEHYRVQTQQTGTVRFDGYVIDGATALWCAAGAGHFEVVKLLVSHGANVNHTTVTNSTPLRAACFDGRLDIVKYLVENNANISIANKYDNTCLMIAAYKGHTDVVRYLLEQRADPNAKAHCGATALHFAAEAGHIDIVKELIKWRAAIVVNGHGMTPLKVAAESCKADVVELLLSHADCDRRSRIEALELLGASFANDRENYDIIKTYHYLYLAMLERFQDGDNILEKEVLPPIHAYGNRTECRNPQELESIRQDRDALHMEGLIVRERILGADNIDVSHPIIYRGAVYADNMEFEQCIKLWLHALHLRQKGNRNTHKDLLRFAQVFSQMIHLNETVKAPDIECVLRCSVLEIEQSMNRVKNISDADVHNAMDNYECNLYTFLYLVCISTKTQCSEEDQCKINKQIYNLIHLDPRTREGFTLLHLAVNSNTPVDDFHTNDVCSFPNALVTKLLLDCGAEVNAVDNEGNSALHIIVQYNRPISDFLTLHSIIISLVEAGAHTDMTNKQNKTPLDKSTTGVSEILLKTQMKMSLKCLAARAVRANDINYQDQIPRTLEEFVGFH
Sequence of Bromodomain-containing protein 2 (P25440 whole entry): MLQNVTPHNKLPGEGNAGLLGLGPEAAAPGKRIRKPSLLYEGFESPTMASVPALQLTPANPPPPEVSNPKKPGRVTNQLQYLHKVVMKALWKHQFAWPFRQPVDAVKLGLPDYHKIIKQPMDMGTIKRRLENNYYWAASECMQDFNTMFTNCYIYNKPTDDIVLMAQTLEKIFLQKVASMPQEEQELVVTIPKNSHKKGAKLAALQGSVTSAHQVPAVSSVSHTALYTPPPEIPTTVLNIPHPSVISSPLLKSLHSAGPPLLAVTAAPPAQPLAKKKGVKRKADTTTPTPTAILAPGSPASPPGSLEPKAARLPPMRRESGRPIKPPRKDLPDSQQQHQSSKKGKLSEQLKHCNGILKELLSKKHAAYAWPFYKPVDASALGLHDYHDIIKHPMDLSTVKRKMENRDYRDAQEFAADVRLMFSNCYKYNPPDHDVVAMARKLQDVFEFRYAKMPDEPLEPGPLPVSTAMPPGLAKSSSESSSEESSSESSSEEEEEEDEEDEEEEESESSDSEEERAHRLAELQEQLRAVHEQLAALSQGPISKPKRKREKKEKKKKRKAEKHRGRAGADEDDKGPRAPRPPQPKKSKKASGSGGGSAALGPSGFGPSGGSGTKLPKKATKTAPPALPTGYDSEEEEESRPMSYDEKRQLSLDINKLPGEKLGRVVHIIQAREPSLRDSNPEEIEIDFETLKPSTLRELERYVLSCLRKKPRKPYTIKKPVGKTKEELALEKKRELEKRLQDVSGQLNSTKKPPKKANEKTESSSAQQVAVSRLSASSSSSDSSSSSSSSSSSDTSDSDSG

Broadly, the IC50 is the concentration needed to halve the response being measured. For the molecule `N#CCCN(C(=O)CCl)c1ccc2c(c1)OCCO2`, the figures for the IC50 in data set [1] and in data set [2] were 2200 nM and 670 nM, respectively.

The Kd is the free concentration of one partner at which half of the binding sites on the other are occupied at equilibrium, for simple one-to-one binding. As a reminder, the DC50 is the midpoint of the concentration-degradation curve. The EC50 is the midpoint of the concentration-response curve. For `Cc1ncsc1-c1ccc2c(c1)OCCOCCOC[C@@H](NC(=O)C[C@H]1N=C(c3ccc(Cl)cc3)c3c(sc(C)c3C)-n3c(C)nnc31)COCCOCCOCC(=O)N[C@@H](C(C)(C)C)C(=O)N1C[C@H](O)C[C@H]1C(=O)NC2`, the values for the Kd in data set [3], in [4] and in data set [5] were 180 nM, 180 nM and 47 nM, respectively. The results for the DC50 in data set [6] and in data set [7] were 25 nM and 125 nM, respectively. In data set [8], the Activity was > 90%. The EC50 amounted to 640 nM with CWR22R and 300 nM with MV4-11 [9].

One may read the Emax as the greatest response seen or fitted, relative to the assay's reference. `Cc1sc2c(c1C)C(c1ccc(Cl)cc1)=N[C@@H](CC(=O)NCCOCCOCCNC(=O)c1cccc(S(=O)(=O)Nc3ccc(C)c4c(C#N)c[nH]c34)c1)c1nnc(C)n1-2` returned a DC50 in [10] of 10800 nM. The Emax in [11] came out at 98%. Moreover, the GC50 with SUD4 came out at 4640 nM.

The TGI is the reduction of tumour growth relative to the control group. For the molecule `Cc1sc2c(c1C)C(c1ccc(Cl)cc1)=N[C@@H](CC(=O)NCCOCCOCCOCC(=O)NC(C)C(C)(C)C)c1nnc(C)n1-2` (stereo partly drawn), the tumour growth inhibition (TGI) in the data set on MCF7 [12] amounted to 59.8%. In [13], this molecule displayed a 50% degradation concentration (DC50) of 22 nM. The same molecule registered an Emax in [14] of 13%. The IC50 at 48 h in data set [15] is 670 nM. For the same molecule, in the data set on MCF7 [16], the 50% inhibitory concentration (IC50) amounted to 59.8 nM.

What is called GI50 is the concentration at which growth is held to half of that of the control. For the molecule `CCOC(=O)C[C@H](c1ccc(C)c(CN2C[C@H](C)Oc3ccccc3S2(=O)=O)c1)c1cc(OCCNC(=O)CNC(=O)C[C@H]2N=C(c3ccc(Cl)cc3)c3c(sc(C)c3C)-n3c(C)nnc32)c2c(c1)nnn2C`, in data set [17], the Emax was 80%. Besides, the GI50 with MDA-MB-468 worked out at 280 nM; with MDA-MB-231, 130 nM.

Turning to `COc1cc(C(=O)NCCOCCOCCOCCNC(=O)C[C@@H]2N=C(c3ccc(Cl)cc3)c3c(sc(C)c3C)-n3c(C)nnc32)ccc1NC(=O)[C@@H]1N[C@@H](CC(C)(C)C)[C@](C#N)(c2ccc(Cl)cc2F)[C@H]1c1cccc(Cl)c1F`, the DC50 in data set [18] is 36 nM. The GC50 in the data set on SUD4 was found to be 25170 nM.

Regarding `C#CCCCC(=O)N1CCOc2ccc(N(CCC#N)C(=O)CCl)cc21`, the DC50 in data set [19] was found to be 250 nM; in data set [20] it was 196 nM; in [22] it was 313 nM. The molecule further showed an Emax in data set [21] of 94%.

In the case of `Cc1sc2c(c1C)C(c1ccc(Cl)cc1)=N[C@@H](CC(=O)NCCCCCNC(=O)COc1ccc(C3CCC(=O)NC3=O)cc1)c1nnc(C)n1-2` (stereo partly drawn), the DC50 is 0.87 nM in [23], 0.16 nM in data set [24] and 24 nM in data set [25]. Also, in [26], the Emax came out at 87%. Further, the IC50 in the data set on MV4-11 [27] amounted to 1.83 nM; in the data set with MV4-11 [28], 0.003 nM.

Values taken from ChEMBL document CHEMBL5241114, “A comprehensive review of BET-targeting PROTACs for cancer therapy” (Bioorg Med Chem, 2022).
